Key:
[1] = molecular target: MAP2 (Homo sapiens, UniProt P11137); experiment: Binding (affinity) by displacement of PREG-^3H
Protocol: Binding (affinity) is measured by the displacement of PREG-^3H.

[2] = system: PC12 cell line; experiment: Cellular toxicity test; format: cell-based, rat; details: concentrations as high as solubility limits (approximately 50 μM)
Protocol: Cellular toxicity tests are carried out routinely on the PC12 cell line.

[3] = system: microtubule-associated MAP2 in PC12 cells; experiment: Immunolabeling of microtubule-associated MAP2 in PC12 cells; format: cell-based, rat; details: 20 μM, NGF 10 ng/ml (FIG. 4)
Excerpt: They were fixed and exposed to anti-MAP2 antibodies that reveal microtubule-associated MAP2 exclusively.
To test the effect of selected molecules on neuritic growth, we first used the PC12 line, which has long been employed in neurobiological research. In the presence of NGF (nerve growth factor), the cells of this line, which arise from a rat pheochromocytoma, form neuritic extensions containing MAP-associated microtubules. The growth of these elongations is stimulated by the addition of PREG. […] This neurite growth accompanies the stimulation by 43-B of the association of MAP2 to the microtubules (FIG. 4).

[4] = molecular target: Mineralocorticoid Receptor (MR) (Rattus norvegicus, UniProt P22199); experiment: Radioligand binding assay, MR; details: MAP4343 10 μM; 4.5 nM [^3H] D-Aldosterone; Wistar Rat kidney
Protocol: (§1) Binding affinity of 3-methoxy-PREG (MAP4343) for receptors of steroid hormones was evaluated using radioligand binding assays.

[5] = system: 80 different CNS neurotransmitters receptors; experiment: Screen for in vitro affinity to 80 different CNS neurotransmitters receptors; format: binding
Excerpt: MAP4343 has been screened for in vitro affinity to 80 different CNS neurotransmitters receptors using various validated binding assays.

[6] = molecular target: Glucorticoid Receptor (GR) (Homo sapiens, UniProt P04150); experiment: Radioligand binding assay, GR; details: MAP4343 10 μM; 3 nM [^3H] Dexamethasone; Human HeLa S3 cells
Protocol: as §1

[7] = system: CCI traumatized animals; experiment: Water Exploration Test (WET) after Controlled Cortical Impact (CCI); format: in vivo, rat; design: key to Time spent in CZ, Conclusion vs. CCI-D0: ↓ ↓ ↓: decrease of analyzed variable with p < 0.001; ?: stability of analyzed variable; ↑: increase in analyzed variable with p < 0.05; key to Entry number in CZ, Conclusion vs. CCI-D0: ↓: decrease of analyzed variable with p < 0.05; ?: stability of analyzed variable; ↑ ↑: increase in analyzed variable with p < 0.01; details: for Entry number in CZ, Mean / Time spent in CZ, Mean: C-D0 = 100
Protocol: Male Sprague-Dawley rats of […] are used. There were 12 animals per group for all in vivo experiments (WET, MRI) except for the CHI injury which requested 17 animals per group because of the post-trauma mortality rate. Each group was then split in two subgroups of 6 individuals for all post-mortem analysis (biochemical, histological and immunohistological analysis.
CCI was performed with an electromagnetic impact device as described (MyNeurolab, St. Louis, Mo.; Brody et al. 2007). Anesthesized rats were subjected to a single right lateral CCI, with the following parameters: impact centered 4.0 mm anterior to lambda and 4.5 mm […] of midline, within the craniotomy of the animal. The impact was set at a velocity of 4 m/s with a sustained depression of 200 ms, using a 5.0 mm tip.
The […] is a rat, the more time it will spend “floating” (null velocity) in the central zone (see Fares-2009).
More precisely, a circular tank (180 cm diameter, 60 cm high) is filled with water maintained at 27° C. to a depth of 40 cm. The water is made opaque by adding black gouache, allowing the VideoTrack system (ViewPoint) to detect the white-coloured rat. This tank is divided into 4 identical quadrants (6,358 cm2 each) using two 180 cm long opaque plastic separators. In each quadrant, one rat is introduced with its head facing the corner between the separator and the tank's wall. It is noteworthy to emphasize that 4 rats can be tested simultaneously using the 4 quadrants. Using the VideoTrack system, we draw two virtual areas: a large one delineates the whole quadrant in which the rat is placed, the so-called Full Quadrant (FQ) and a small one that delineates a central zone (CZ). The CZ, having the same shape as the FQ, measures 2,921 cm2, and is considered to be anxiogenic for animals. Thus, the distance, the number of entries, the time spent, and the velocity profile in the CZ are measured to assess anxiety-like behaviour. In addition, the total distance traveled in the FQ represents an indicator of motor activity. The duration of each trial is 5 minutes.
The effect of 3-methoxy-PREG (MAP4343) on anxiety induced by trauma was analyzed using the WET test.

[8] = molecular target: Androgen Receptor (AR) (Rattus norvegicus, UniProt P15207); experiment: Radioligand binding assay, AR; details: MAP4343 10 μM; 1.5 nM [^3H] Mibolerone; Rat recombinant E. coli
Protocol: as §1

[9] = Day 7, CCI-D1, 10 mg/kg from 24 hours post-trauma
[10] = Day 7, CCI-D2, 20 mg/kg from 24 hours post-trauma
[11] = Day 27, CCI-D1, 10 mg/kg from 24 hours post-trauma
[12] = Day 27, CCI-D2, 20 mg/kg from 24 hours post-trauma

Mineralocorticoid Receptor (MR), sequence (P22199 whole entry): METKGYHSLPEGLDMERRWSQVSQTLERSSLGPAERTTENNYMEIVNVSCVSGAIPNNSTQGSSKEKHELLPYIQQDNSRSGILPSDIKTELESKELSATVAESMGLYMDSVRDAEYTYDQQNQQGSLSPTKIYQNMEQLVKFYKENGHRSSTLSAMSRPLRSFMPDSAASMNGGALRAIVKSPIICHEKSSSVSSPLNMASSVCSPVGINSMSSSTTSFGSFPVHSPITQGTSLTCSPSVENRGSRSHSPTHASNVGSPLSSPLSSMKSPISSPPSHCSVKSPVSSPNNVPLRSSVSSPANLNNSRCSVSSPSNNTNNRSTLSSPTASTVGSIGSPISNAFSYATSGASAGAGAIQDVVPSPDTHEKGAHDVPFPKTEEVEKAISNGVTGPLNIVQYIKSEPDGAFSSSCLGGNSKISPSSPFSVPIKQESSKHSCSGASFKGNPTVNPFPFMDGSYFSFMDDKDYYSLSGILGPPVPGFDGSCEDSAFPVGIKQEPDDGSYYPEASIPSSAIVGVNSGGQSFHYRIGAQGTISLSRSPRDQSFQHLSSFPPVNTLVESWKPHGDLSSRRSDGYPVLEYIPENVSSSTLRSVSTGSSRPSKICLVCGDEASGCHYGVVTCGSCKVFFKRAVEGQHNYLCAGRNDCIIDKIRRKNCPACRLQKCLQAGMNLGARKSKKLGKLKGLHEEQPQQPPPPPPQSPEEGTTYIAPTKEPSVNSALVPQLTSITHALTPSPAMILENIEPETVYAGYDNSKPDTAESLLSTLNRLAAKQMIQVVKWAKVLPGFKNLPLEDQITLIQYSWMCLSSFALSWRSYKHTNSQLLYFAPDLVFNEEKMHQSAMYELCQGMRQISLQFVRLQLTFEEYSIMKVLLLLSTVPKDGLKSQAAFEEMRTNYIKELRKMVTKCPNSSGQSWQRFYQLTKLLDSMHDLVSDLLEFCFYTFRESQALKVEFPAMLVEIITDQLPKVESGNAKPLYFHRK
Androgen Receptor (AR), sequence (P15207 whole entry S389L): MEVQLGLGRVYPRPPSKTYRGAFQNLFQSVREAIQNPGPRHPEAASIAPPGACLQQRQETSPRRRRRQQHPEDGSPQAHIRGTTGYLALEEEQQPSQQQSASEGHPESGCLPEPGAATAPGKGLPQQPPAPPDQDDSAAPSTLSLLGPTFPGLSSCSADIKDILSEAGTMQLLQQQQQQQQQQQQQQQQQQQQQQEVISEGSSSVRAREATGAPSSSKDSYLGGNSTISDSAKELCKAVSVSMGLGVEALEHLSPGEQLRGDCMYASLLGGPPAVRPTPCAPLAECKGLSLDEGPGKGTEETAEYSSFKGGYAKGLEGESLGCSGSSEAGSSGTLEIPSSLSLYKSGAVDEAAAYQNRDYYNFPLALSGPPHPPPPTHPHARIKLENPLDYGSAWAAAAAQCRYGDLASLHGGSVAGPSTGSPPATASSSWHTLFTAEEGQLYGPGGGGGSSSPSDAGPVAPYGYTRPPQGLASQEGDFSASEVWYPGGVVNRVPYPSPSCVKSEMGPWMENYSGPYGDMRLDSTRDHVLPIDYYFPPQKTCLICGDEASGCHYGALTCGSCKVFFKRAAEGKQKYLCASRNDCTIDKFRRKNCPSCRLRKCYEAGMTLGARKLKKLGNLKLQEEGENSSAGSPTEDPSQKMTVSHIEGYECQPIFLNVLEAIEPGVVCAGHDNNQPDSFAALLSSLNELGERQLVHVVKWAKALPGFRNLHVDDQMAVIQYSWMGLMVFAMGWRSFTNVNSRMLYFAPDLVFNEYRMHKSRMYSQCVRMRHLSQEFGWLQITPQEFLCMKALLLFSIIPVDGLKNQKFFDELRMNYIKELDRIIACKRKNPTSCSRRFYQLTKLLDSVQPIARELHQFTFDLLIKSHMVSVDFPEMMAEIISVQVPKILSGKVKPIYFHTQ
Glucorticoid Receptor (GR), sequence (P04150 whole entry): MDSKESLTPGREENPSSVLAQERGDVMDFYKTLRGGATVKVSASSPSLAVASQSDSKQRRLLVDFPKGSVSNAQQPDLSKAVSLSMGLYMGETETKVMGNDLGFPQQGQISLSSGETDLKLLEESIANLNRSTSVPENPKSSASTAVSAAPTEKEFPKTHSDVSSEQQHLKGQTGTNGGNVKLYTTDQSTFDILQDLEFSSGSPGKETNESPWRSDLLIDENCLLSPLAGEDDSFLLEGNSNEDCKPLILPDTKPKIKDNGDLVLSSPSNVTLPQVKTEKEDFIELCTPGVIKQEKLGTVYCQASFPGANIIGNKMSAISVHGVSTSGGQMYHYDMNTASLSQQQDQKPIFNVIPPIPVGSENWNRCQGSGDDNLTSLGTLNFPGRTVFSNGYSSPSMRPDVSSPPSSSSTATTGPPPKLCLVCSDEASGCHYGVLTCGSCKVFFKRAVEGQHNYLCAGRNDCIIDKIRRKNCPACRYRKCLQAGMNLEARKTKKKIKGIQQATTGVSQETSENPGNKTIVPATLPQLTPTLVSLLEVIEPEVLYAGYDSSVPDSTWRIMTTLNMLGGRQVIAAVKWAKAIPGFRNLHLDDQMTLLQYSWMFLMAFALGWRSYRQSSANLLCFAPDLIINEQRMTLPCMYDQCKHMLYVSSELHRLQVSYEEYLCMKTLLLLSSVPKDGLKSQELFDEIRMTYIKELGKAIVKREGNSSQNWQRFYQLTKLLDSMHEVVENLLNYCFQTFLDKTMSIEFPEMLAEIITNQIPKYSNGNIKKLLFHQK
MAP2, sequence (P11137 whole entry): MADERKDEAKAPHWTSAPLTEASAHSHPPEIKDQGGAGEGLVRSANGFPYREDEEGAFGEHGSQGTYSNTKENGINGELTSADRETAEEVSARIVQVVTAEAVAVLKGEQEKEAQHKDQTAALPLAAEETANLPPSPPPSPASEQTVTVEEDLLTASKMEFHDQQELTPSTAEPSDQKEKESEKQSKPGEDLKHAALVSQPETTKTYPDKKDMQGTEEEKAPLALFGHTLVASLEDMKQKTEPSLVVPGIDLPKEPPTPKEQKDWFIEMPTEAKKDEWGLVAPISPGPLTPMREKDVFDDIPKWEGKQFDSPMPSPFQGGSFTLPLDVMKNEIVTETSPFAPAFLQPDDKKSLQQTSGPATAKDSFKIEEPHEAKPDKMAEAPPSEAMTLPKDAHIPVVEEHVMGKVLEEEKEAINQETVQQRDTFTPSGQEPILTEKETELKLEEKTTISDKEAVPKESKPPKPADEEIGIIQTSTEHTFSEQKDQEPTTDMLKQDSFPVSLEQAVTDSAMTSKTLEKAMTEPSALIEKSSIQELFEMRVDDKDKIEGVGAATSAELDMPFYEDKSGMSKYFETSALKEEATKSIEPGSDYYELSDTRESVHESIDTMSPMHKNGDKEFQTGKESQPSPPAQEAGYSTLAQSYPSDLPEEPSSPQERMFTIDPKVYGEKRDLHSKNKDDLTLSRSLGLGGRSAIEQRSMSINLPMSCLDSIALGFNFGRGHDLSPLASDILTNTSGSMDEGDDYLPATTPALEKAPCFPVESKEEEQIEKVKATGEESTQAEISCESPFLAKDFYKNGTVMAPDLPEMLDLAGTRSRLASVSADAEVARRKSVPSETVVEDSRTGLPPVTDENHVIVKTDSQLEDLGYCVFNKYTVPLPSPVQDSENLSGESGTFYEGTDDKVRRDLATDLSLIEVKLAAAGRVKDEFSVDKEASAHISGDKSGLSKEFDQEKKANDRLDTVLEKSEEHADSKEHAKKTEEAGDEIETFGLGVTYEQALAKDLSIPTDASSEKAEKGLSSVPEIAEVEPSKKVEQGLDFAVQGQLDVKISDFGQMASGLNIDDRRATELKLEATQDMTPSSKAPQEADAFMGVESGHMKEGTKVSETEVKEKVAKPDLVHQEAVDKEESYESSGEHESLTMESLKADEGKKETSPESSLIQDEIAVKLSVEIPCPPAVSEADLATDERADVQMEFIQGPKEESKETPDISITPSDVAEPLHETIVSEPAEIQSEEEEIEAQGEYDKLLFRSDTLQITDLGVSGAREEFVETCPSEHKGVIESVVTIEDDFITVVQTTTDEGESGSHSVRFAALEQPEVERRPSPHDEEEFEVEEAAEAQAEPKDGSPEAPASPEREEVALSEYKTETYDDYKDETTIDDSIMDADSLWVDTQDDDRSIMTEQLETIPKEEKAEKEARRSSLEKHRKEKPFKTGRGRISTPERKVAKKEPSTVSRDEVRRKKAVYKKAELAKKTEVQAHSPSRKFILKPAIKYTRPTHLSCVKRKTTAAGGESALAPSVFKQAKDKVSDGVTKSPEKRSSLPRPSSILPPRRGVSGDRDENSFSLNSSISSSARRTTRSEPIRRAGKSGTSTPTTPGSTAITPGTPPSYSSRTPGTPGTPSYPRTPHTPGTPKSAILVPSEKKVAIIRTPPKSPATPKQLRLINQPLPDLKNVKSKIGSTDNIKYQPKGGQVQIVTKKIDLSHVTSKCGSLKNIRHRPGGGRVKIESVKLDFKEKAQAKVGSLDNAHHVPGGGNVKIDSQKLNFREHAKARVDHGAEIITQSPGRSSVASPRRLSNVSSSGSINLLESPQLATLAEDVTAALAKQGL

In the case of `CO[C@H]1CC[C@@]2(C)C(=CC[C@H]3[C@@H]4CC[C@H](C(C)=O)[C@@]4(C)CC[C@@H]32)C1` [3-methoxy-PREG, 3β-methoxy-pregna-5-ene-20-one], the “Affinity (index of binding)” value [1] was 100% of PREG, the cellular toxicity [2] was “do not demonstrate toxicity” and the “association of MAP2 to the microtubules” value [3] was “stimulation”. For the same compound, the “% inhibition of specific binding” value [4] was under 25%, the “affinity for any tested receptor” value [5] was “no significant affinity” and the “% inhibition of specific binding” value [6] was under 25%. For the same compound, the “Entry number in CZ, Mean” value [7, 9] was 64, the “Time spent in CZ, Mean” value [7, 9] was 48 and the “Time spent in CZ, Conclusion vs. CCI-D0” value ([7]; Day 7, CCI-D2, 20 mg/kg) was “↑”. The “Entry number in CZ, Mean” value [7, 10] was 73, the “Time spent in CZ, Mean” value [7, 10] was 66 and the “Entry number in CZ, Mean” value [7, 11] was 79. The “Time spent in CZ, Mean” value [7, 11] was 86, the “Entry number in CZ, Conclusion vs. CCI-D0” value ([7]; Day 27, CCI-D2, 20 mg/kg) was “↑ ↑” and the “Time spent in CZ, Conclusion vs. CCI-D0” value ([7]; Day 27, CCI-D2, 20 mg/kg) was “↑”. For the same compound, the “Entry number in CZ, Mean” value [7, 12] was 114, the “Time spent in CZ, Mean” value [7, 12] was 95 and the “anxiety induced by CCI trauma” value ([7]; as early as day 7, in particular at 20 mg/kg (D2)) was “alleviated”. The “% inhibition of specific binding” value [8] was under 25%.

Reference: patent US20140045807A2, “THE USE OF 3-METHOXY-PREGNENOLONE FOR THE PREPARATION OF A DRUG FOR TREATING A TRAUMATIC BRAIN INJURY” (priority 2004, published 2014)
